Experimental data published in patent publication US10759810B2 (AO “TATKHIMFARMPREPARATY”, priority 2016, dated 2020).
Converted amounts (≈) assume the structure as drawn.

How the values were obtained:
Experiment in all cases: MIC, serial dilutions in Mueller-Hinton broth
Type in all cases: cell-based
[1] = system: Salmonella typhimurium TA100 (museum strain); conditions: inoculum 10^7 CFU/ml, gram-negative; for MIC: Salmonella enterica, TYPHIMURIUM, read-out: MIC, S. typhimurium
Procedure: (§1) Measurement of antibacterial activity was carried out on the strains of Staphylococcus aureus ATCC 29213 (museum strain), Staphylococcus epidermidis (clinical isolate), Micrococcus luteus (clinical isolate), Bacillus subtilis 168 (museum strain), Escherichia coli ATCC 25922 (museum strain), Salmonella typhimurium TA100 (museum strain), Pseudomonas aeruginosa ATCC 27853 (museum strain). A comparative assessment of the spectrum of antibacterial action on reference strains and clinical isolates of gram-positive microorganisms was carried out using a micromethod for determining the minimum inhibitory concentration (MIC) using serial dilutions in Mueller-Hinton broth using 96-well sterile plates.
(§2) The first lowest concentration of the antibiotic (from a series of successive dilutions), where bacterial growth is not visually determined, is considered to be the minimum inhibitory concentration (MIC).
(§3) For the preparation of inoculum (infectious material used for artificial contamination), intended for the study of antibacterial activity, was used a pure daily culture of bacteria grown on a dense nutrient medium (agar LB medium). In a sterile isotonic solution of sodium chloride, a suspension of microorganisms was prepared, adjusting the inoculum density to 0.5 according to the McFarland standard (1.5·10^8 CFU/ml). Then, the resulting inoculum was diluted to a concentration of 10^7 CFU/ml with LB-broth. The inoculum was used for 15 minutes after preparation; the purity of the bacterial strains was monitored before each experiment.
(§4) 100 μl of Muller-Hinton broth was added to the wells of each plate; the test base was introduced into the first well at a concentration of 128 μg/ml in a volume of 100 μl and its concentration was adjusted to 0.25 μg/ml by consecutive two-fold dilution. […] Each preparation in the experiment was titrated three times. […] In addition, the purity of nutrient media and solvents was monitored. The plates were incubated in a thermostat at […] for 24 hours.
(§5) The growth of cultures was assessed visually, comparing the growth of microorganisms in the presence of test compounds with the growth of culture without them.

[2] = system: Escherichia coli ATCC 25922 (museum strain); conditions: inoculum 10^7 CFU/ml, gram-negative; for MIC: Escherichia coli, ATCC25922, read-out: MIC, E. coli
Procedure: as §1, §2, §3, §4, §5

[3] = system: Micrococcus luteus (clinical isolate); conditions: inoculum 10^7 CFU/ml, gram-positive; for MIC: Micrococcus luteus, read-out: MIC, M. luteus
Procedure: as §1, §2, §3, §4, §5

[4] = system: Staphylococcus aureus ATCC 29213 (museum strain); conditions: inoculum 10^7 CFU/ml, gram-positive; for MIC: Staphylococcus aureus, ATCC29213, read-out: MIC, S. aureus
Procedure: as §1, §2, §3, §4, §5

[5] = system: Pseudomonas aeruginosa ATCC 27853 (museum strain); conditions: inoculum 10^7 CFU/ml, gram-negative; for MIC: Pseudomonas aeruginosa, ATCC27853, read-out: MIC, P. aerugenosa
Procedure: as §1, §2, §3, §4, §5

[6] = system: Bacillus subtilis 168 (museum strain); conditions: inoculum 10^7 CFU/ml, gram-positive; for MIC: Bacillus subtilis, read-out: MIC, B. subtilis
Procedure: as §1, §2, §3, §4, §5

[7] = system: Staphylococcus epidermidis (clinical isolate); conditions: inoculum 10^7 CFU/ml, gram-positive; for MIC: Staphylococcus epidermidis, read-out: MIC, S. epidermidis
Procedure: as §1, §2, §3, §4, §5

SMILES	MIC, S. typhimurium [1]	MIC, E. coli [2]	MIC, M. luteus [3]	MIC, S. aureus [4]	MIC, P. aerugenosa [5]	MIC, B. subtilis [6]	MIC, S. epidermidis [7]	MIC [1]	MIC [2]	MIC [3]	MIC [4]	MIC [5]	MIC [6]	MIC [7]
CCCC1OCc2c(CN3CCN(c4cc5c(cc4F)c(=O)c(C(=O)O)cn5C4CC4)CC3)cnc(C)c2O1 (stereo not shown) [Compound I-7, 1-cyclopropyl-6-fluoro-7-(4-((8-methyl-2-propyl-4H-[1,3]dioxino-[4,5-c]pyridine-5-yl)methyl)piperazinyl)-4-oxo-1,4-dihydroquinolin-3-carboxylic acid]	4 µg/mL (≈ 7.45 µM)	>64 µg/mL	64 µg/mL (≈ 119 µM)	64 µg/mL (≈ 119 µM)	>64 µg/mL	<2 µg/mL	64 µg/mL (≈ 119 µM)	–	–	–	–	–	–	–
Cc1ncc(CSCCN2CCN(c3cc4c(cc3F)c(=O)c(C(=O)O)cn4C3CC3)CC2)c(CO)c1O [Compound I-5, 1-cyclopropyl-6-fluoro-7-(4-(2-(((5-hydroxy-4-hydroxymethyl-6-methylpyridine-3-yl)methyl)sulfanyl)ethyl)piperazinyl)-4-oxo-1,4-dihydroquinolin-3-carboxylic acid]	4 µg/mL (≈ 7.37 µM)	8 µg/mL (≈ 14.7 µM)	8 µg/mL (≈ 14.7 µM)	8 µg/mL (≈ 14.7 µM)	32 µg/mL (≈ 59 µM)	<2 µg/mL	8 µg/mL (≈ 14.7 µM)	–	–	–	–	–	–	–
CCCCCCCCC1OCc2c(CN3CCN(c4cc5c(cc4F)c(=O)c(C(=O)O)cn5C4CC4)CC3)cnc(C)c2O1 (stereo not shown) [Compound I-8, 1-cyclopropyl-6-fluoro-7-(4-((8-methyl-2-octyl-4H-[1,3]dioxino-[4,5-c]pyridine-5-yl)methyl)piperazinyl)-4-oxo-1,4-dihydroquinolin-3-carboxylic acid]	4 µg/mL (≈ 6.59 µM)	>64 µg/mL	64 µg/mL (≈ 105 µM)	32 µg/mL (≈ 52.7 µM)	>64 µg/mL	<2 µg/mL	64 µg/mL (≈ 105 µM)	–	–	–	–	–	–	–
Cc1ncc(CSCCN2CCN(c3cc4c(cc3F)c(=O)c(C(=O)O)cn4C3CC3)CC2)c2c1OC(C)(C)OC2 [Compound I-4, 1-cyclopropyl-6-fluoro-7-(4-(2-(((2,2,8-trimethyl-4H-[1,3]dioxino-[4,5-c]pyridine-5-yl)methyl)sulfanyl)ethyl)piperazinyl)-4-oxo-1,4-dihydroquinolin-3-carboxylic acid]	4 µg/mL (≈ 6.86 µM)	64 µg/mL (≈ 110 µM)	8 µg/mL (≈ 13.7 µM)	16 µg/mL (≈ 27.5 µM)	>64 µg/mL	<2 µg/mL	32 µg/mL (≈ 54.9 µM)	–	–	–	–	–	–	–
Cc1nc(CN2CCN(c3cc4c(cc3F)c(=O)c(C(=O)O)cn4C3CC3)CC2)c(CO)c(CO)c1O [Compound I-11, 1-cyclopropyl-6-fluoro-7-(4-((5-hydroxy-3,4-bis(hydroxymethyl)-6-methylpyridine-2-yl)methyl)piperazinyl)-4-oxo-1,4-dihydroquinolin-3-carboxylic acid]	4 µg/mL (≈ 7.8 µM)	64 µg/mL (≈ 125 µM)	32 µg/mL (≈ 62.4 µM)	64 µg/mL (≈ 125 µM)	>64 µg/mL	<2 µg/mL	32 µg/mL (≈ 62.4 µM)	–	–	–	–	–	–	–
Cc1ncc(CN2CCN(c3cc4c(cc3F)c(=O)c(C(=O)O)cn4C3CC3)CC2)c2c1OCOC2 [Compound I-12, 1-cyclopropyl-6-fluoro-7-(4-((8-methyl-4H-[1,3]dioxino [4,5-c]pyridine-5-yl)methyl)piperazine-1-yl)-4-oxo-1,4-dihydroquinolin-3-carboxylic acid]	–	–	–	–	–	–	–	0.5 µg/mL (≈ 1.01 µM)	8 µg/mL (≈ 16.2 µM)	16 µg/mL (≈ 32.4 µM)	1 µg/mL (≈ 2.02 µM)	32 µg/mL (≈ 64.7 µM)	< 2 µg/mL	0.5 µg/mL (≈ 1.01 µM)
Cc1nc(CN2CCN(c3cc4c(cc3F)c(=O)c(C(=O)O)cn4C3CC3)CC2)c(CO)c2c1OC(C)(C)OC2 [Compound I-10, 1-cyclopropyl-6-fluoro-7-(4-((5-hydroxymethyl-2,2,8-trimethyl-4H-[1,3]dioxino [4,5-c]pyridine-6-yl)methyl)piperazinyl)-4-oxo-1,4-dihydroquinolin-3-carboxylic acid]	4 µg/mL (≈ 7.24 µM)	64 µg/mL (≈ 116 µM)	8 µg/mL (≈ 14.5 µM)	8 µg/mL (≈ 14.5 µM)	>64 µg/mL	<2 µg/mL	8 µg/mL (≈ 14.5 µM)	–	–	–	–	–	–	–
COc1c(N2C[C@@H]3CCCN[C@@H]3C2)c(F)cc2c(=O)c(C(=O)O)cn(C3CC3)c12 [Moxifloxacin, moxifloxacin, reference compound]	–	–	–	–	–	–	–	0.5 µg/mL (≈ 1.25 µM)	2 µg/mL (≈ 4.98 µM)	4 µg/mL (≈ 9.96 µM)	1 µg/mL (≈ 2.49 µM)	8 µg/mL (≈ 19.9 µM)	< 2 µg/mL	4 µg/mL (≈ 9.96 µM)
Cc1ncc(CN2CCN(c3cc4c(cc3F)c(=O)c(C(=O)O)cn4C3CC3)CC2)c2c1OC(C)OC2 (stereo not shown) [Compound I-6, 1-cyclopropyl-6-fluoro-7-(4-((2,8-dimethyl-4H-[1,3]dioxino-[4,5-c]pyridine-5-yl)methyl)piperazinyl)-4-oxo-1,4-dihydroquinolin-3-carboxylic acid]	4 µg/mL (≈ 7.87 µM)	>64 µg/mL	8 µg/mL (≈ 15.7 µM)	8 µg/mL (≈ 15.7 µM)	>64 µg/mL	<2 µg/mL	8 µg/mL (≈ 15.7 µM)	–	–	–	–	–	–	–
Cc1ncc(CN2CCN(c3cc4c(cc3F)c(=O)c(C(=O)O)cn4C3CC3)CC2)c2c1OC(C)(C)OC2 [Compound I-1, 1-cyclopropyl-6-fluoro-7-(4-((2,2,8-trimethyl-4H-[1,3]dioxino-[4,5-c]pyridine-5-yl)methyl)piperazinyl)-4-oxo-1,4-dihydroquinolin-3-carboxylic acid]	4 µg/mL (≈ 7.65 µM)	64 µg/mL (≈ 122 µM)	32 µg/mL (≈ 61.2 µM)	32 µg/mL (≈ 61.2 µM)	>64 µg/mL	<2 µg/mL	16 µg/mL (≈ 30.6 µM)	–	–	–	–	–	–	–
